From patent US20080260636A1, “STABILIZATION OF RADIONUCLIDE-CONTAINING COMPOSITIONS” (priority 2001, published 2008) come the findings set out here.

A short description of data set [1]: RCP of 2-vial kit (iodide added to formulated kit, then Tc-99m added). In kind it is physicochemical. The following applies: 2-vials. As for the experimental part: (§1) KI affords stability to Tc-99m depreotide even when an oxidant (i.e. nitrate) is present in the eluate. Potassium iodide is well tolerated in humans unlike other stabilizing agents such as methionine or trolox. Methods for determining the RCP value are known in the art such as described in Cancer Res. (1998), May 1, 58(9):1850-1859, and J. Nucl. Med. (1996), June, 37(6): 1016-1022.
(§2) Further examples were conducted to show the stabilizing effect of the iodide ion for other complexes under varying conditions and with varying amounts and sources (KI and NaI) of iodide ion.

The nature of data set [2]: RCP of single vial kit (iodide formulated with targeting agent) reconstituted with Tc 99m. In kind it is physicochemical. The method, then: as §1, §2

Where a SMILES comes first, the peptide text is derived from it. [ ]: non-standard residue; d: D form. The star is where a group is joined. X1 = NCCCC[C@H](NC(=O)[C@H](CS)NC(=O)[C@H](CCCCN)NC(=O)[C@@H](N)CNC(=O)C*)C(N)=O; NMeF = CN[C@@H](Cc1ccccc1)C(=O)O; hCys = N[C@@H](CCS)C(=O)O

For the compound `CC(C)[C@@H]1NC(=O)[C@H](CCCCN)NC(=O)[C@@H](Cc2c[nH]c3ccccc23)NC(=O)[C@H](Cc2ccc(O)cc2)NC(=O)[C@H](Cc2ccccc2)N(C)C(=O)[C@H](CCSCC(=O)NC[C@H](N)C(=O)N[C@@H](CCCCN)C(=O)N[C@@H](CS)C(=O)N[C@@H](CCCCN)C(N)=O)NC1=O` [Depreotide, depreotide] (cyclo([hCys](X1)[NMeF]Y[dW]KV)), the “% RCP” value in data set [1] (KI 4 mg, 5 h) amounted to 94%; in data set [1] (KI 6 mg, 5 h), 94%; in data set [1] (KI 10 mg, 6 h), 95%; in data set [2] (KI 4 mg, 5 h), 89%; in data set [2] (KI 5 mg, 6 h), 93%; in data set [2] (KI 6 mg, 5 h) it was 95%. Also, the “% RCP” value is given as 91% in data set [2] (NaI 8 mg, 6 h) and 93% in data set [2] (NaI 10 mg, 5 h).
